In patent US8686000B2, “Herbicidally active ketosultams and diketopyridines” (Bayer Cropscience AG, priority 2010, dated 2014):

Each compound was assayed on corn (assay: Post-emergence compatibility with crop plants). Settings: 320 grams per hectare, scored visually after 3 to 4 weeks.
Format: in vivo
Method: Post-emergence herbicidal action against weed plants and compatibility with crop plants Seeds of monocotyledonous and dicotyledonous weed plants are set out in cardboard pots in sandy loam soil, covered with soil, and cultivated under glass under good growth conditions. Two to three weeks after sowing, the trial plants are treated at the three-leaf stage. The inventive compounds, formulated as wettable powders or as emulsifiable concentrates, are sprayed onto the surface of the green parts of the plants, at a water application rate of 600 to 800 I/ha (converted). After the trial plants have stood for 3 to 4 weeks under glass under optimum growth conditions, the effect of the inventive compounds is scored visually.

| Compound | damage in corn |
| --- | --- |
| CCc1cc(Cl)cc(Br)c1-c1c(O)c2scnc2n(CC(F)F)c1=O [I-a-36] | do not exhibit any damage |
| C[N+](C)(C)C.Cc1cc(C)c(-c2c([O-])c3scnc3n(CC(F)F)c2=O)c(C)c1 [I-g-5] | do not exhibit any damage |
| Cc1ccc(Cl)c(-c2c(O)c3scnc3n(CC(F)(F)F)c2=O)c1Cl [I-a-86] | do not exhibit any damage |
| C#CCOc1c(-c2ccccc2C(F)(F)F)c(=O)n(CC#C)c2ncsc12 [I-h-11] | do not exhibit any damage |
| O=c1c(-c2c(Cl)ccc(C3CC3)c2Cl)c(O)c2scnc2n1CC(F)F [I-a-83] | do not exhibit any damage |
| C#CCn1c(=O)c(-c2c(Cl)cccc2Cl)c(O)c2scnc21 [I-a-44] | do not exhibit any damage |
| Cc1cc(C)c(-c2c(O)c3scnc3n(CC(F)F)c2=O)c(C)c1 [I-a-37] | do not exhibit any damage |
| Cc1c(Br)ccc(Cl)c1-c1c(O)c2scnc2n(C)c1=O [I-a-93] | do not exhibit any damage |

What follows are compounds tested on corn (assay: Pre-emergence compatibility with crop plants). Settings: 320 grams per hectare, scored visually after 3 to 4 weeks.
Format: in vivo
Description: (§1) Pre-emergence Herbicidal Action against Weed Plants and Compatibility with Crop Plants
(§2) Seeds or rhizome sections of mono- and dicotyledonous weed plants are set out in pots of 9 to 13 cm in diameter in sandy loam soil, and are covered with soil. The herbicides, formulated as emulsifiable concentrates or dusting products, are applied to the surface of the covering earth in different doses in the form of aqueous dispersions or suspensions or emulsions, at a water application rate of 300 to 800 I/ha (converted). The pots are then maintained under glass under optimum conditions for the further cultivation of the plants. After the trial plants have stood for 3 to 4 weeks under glass under optimum growth conditions, the effect of the inventive compounds is scored visually.

| Compound | damage in corn |
| --- | --- |
| Cc1cc(Br)cc(C)c1-c1c(O)c2scnc2n(CC(F)F)c1=O [I-a-97] | do not exhibit any damage |
| CCc1cc(Cl)cc(Br)c1-c1c(O)c2scnc2n(CC(F)F)c1=O [I-a-36] | do not exhibit any damage |
| C=CCn1c(=O)c(-c2c(Br)cc(Cl)cc2CC)c(OC(=O)C(C)(C)C)c2scnc21 [I-b-22] | do not exhibit any damage |
| Cc1c(Br)ccc(Cl)c1-c1c(O)c2scnc2n(CC(F)F)c1=O [I-a-94] | do not exhibit any damage |
| O=c1c(-c2c(Cl)ccc(Br)c2Cl)c(O)c2scnc2n1CC(F)F [I-a-75] | do not exhibit any damage |
| Cc1ccc(Cl)c(-c2c(O)c3scnc3n(CC(F)F)c2=O)c1Cl [I-a-89] | do not exhibit any damage |
| C#CCn1c(=O)c(-c2c(Cl)cccc2Cl)c(O)c2scnc21 [I-a-44] | do not exhibit any damage |
| CCOC(=O)Oc1c(-c2c(C)cc(Br)cc2CC)c(=O)n(C)c2ncsc12 [I-c-38] | do not exhibit any damage |

These compounds were tested on oilseed rape (assay: Pre-emergence compatibility with crop plants). Settings: 320 grams per hectare, scored visually after 3 to 4 weeks.
Format: in vivo
Description: as §1, §2

| Compound | damage in oilseed rape |
| --- | --- |
| C=CCn1c(=O)c(-c2c(Br)cc(Cl)cc2CC)c(O)c2cn(C)nc21 [I-a-28] | do not exhibit any damage |
| CCc1cc(Cl)cc(Br)c1-c1c(O)c2cn(C)nc2n(CC(F)F)c1=O [I-a-43] | do not exhibit any damage |
| C=CCn1c(=O)c(-c2c(C)cc(C)cc2C)c(O)c2scnc21 [I-a-2, 4-allyl-7-hydroxy-6-mesityl[1,3]thiazolo[4,5-b]pyridin-5(4H)-one] | do not exhibit any damage |
